One data set has as its system mice. Kind of data set: Intravaginal administration twice daily for seven days in mated mice. Particulars: mice that conceived; implantation sites and viable embryos unaffected. The class given is in vivo. The procedure:
Female mice were mated with mice from the same strain. Subsequently, on day 0 (presumed day of mating) PIF-1scr in saline solution was administered intravaginally twice daily for seven days (Dr Alan Hoberman, Argus, Inc). The dose was 800 ug/day, 150 ug/ml or saline vehicle only (5 animals in each group). Subsequently, mice were sacrificed at day 12 of presumed gestation and Caesarean-sectioned. Corpora lutea, implantation sites and live and dead embryos were recorded.

In another data set the test system is epithelial cells. As to the kind of experiment: PIF binding to endometrial epithelial cells (MaBCD2 staining). The arrangement: species or system human. Particulars: compared to non-relevant IgG. As to the method:
(§1) In addition, to compare the recovery of β-3 integrin expression with PIF effects described after cultured hEEC in a free-fetal bovine serum (FBS) medium some cells were cultured again in FBS-medium. […] PIF binding to epithelial cells was also examined. Binding was examined using MaBCD2 staining.

For the next data set, the system named is CD2. Kind of data set: CD2 expression in PBMC (flow cytometry, CD2MAb-FITC). The class given is cell-based. The following applies: PBMC exposed 3 days. On the technique in general: A flow cytometer gives signals particle by particle.
Another data set relates to β-3 integrin. As to the kind of experiment: β-3 integrin expression by human endometrial epithelial cells (flow cytometry, immunocytochemistry). Format: cell-based. The following applies: hEEC, 2-day culture, 1-500 nM. The procedure: Human endometrial tissues were digested and stromal and epithelial cells (hEEC) isolated and cultured with a fetal bovine serum (FBS)-enriched medium until confluent layers were obtained. After that the cells were cultured for two more days in a FBS free-medium followed by a further 2-day culture in the same medium containing PIF peptides (1-500 nM).
as §1

Another data set concerns CD3. As to the kind of experiment: CD3 expression in PBMC (flow cytometry, MAbCD3-PE). The class given is cell-based. The following applies: PBMC exposed 3 days, 2-200 nM. As to the method: Fluorescent PIF peptides bind to immune cell membranes following activation. […] CD69 is expressed during activation of lymphocytes and monocytes, and is a marker of NK cells activation. CD25 is the receptor for IL-2, and a known activation marker as well. […] The expression of CD3 in PBMC was examined following exposure for 3 days to sPIF-1(15) (SEQ ID NO:13) (2-200 nM) using 20 ul MAbCD3-PE (BD).

Data set [1] can be described thus: Whole body distribution of FITC labeled PIF-1 after IV and IP injection. The class given is in vivo, rats. As to the method:
In a further experiment, PIF presence in the spleen was confirmed in vivo, In addition, PIF presence in the cecum, bone marrow and uterus was determined. Adult female rats were injected FITC labeled PIF-1 500 nM in 100 ul volume IV and IP (Eric Solon QPS Inc). 5 and 30 minutes later rats were sacrificed and snap frozen in hexane embedded in frozen media. Whole body 40 um cryo sectioned were obtained and scaaned with a 9140 Typhoon bioimage scanner at a FITC excitation length.

A further data set deals with mouse splenocytes. Kind of data set: FITC peptide binding to mouse splenocytes with 100 fold excess unlabeled peptide. The arrangement: species or system C57Bl/6 mice. Particulars: 300 nM FITC peptide, 100 fold excess unlabeled PIF.
Data set [2] relates to PBMC. Kind of data set: FITC-labeled PIF binding to PBMC subpopulations (flow cytometry). The following applies: PBMC within 24 hrs of PHA activation. The arrangement: species or system human. The procedure: Expression of PIF-1(15) (SEQ ID NO:1), receptor following PHA induced PBMC proliferation CD-4 T cells; CD-8 T cells; NK cell and B cells (unstimulated-top); (PHA stimulated-bottom). Flow cytometry analysis of PBMC following exposure to FITC sPIF-1(15) (SEQ ID NO:13) % expression was determined in PBMC subtypes before and after exposure to 1 ug/ml PHA for 24 hours.
(§2) Human PBMC were isolated by the Ficoll method. FITC-labeled nPIF-115 (SEQ ID NO: 1) and (FITC)-labeled scrPIF-1 (SEQ ID NO:5) and match-size irrelevant peptide (FITC)-labeled negative controls negPIF-1(15) (SEQ ID NO:11), were dissolved in PBS at concentrations ranging from 0.75 to 48.19 μM, and were incubated with 500,000 lymphocytes for 1 h at room temperature. The cells were washed 6 times with PBS and resuspended in 500 μl of the same buffer. T-cells and monocytes identification was performed in independent experiments by incubation with anti-CD3 and anti-CD14 antibody-phycoerithryn (PE) labeled. nPIF-115 (SEQ ID NO: 1) binding to PBMC was determined by flow cytometry. In addition, rosettes formed by T cell-platelets were detected by flow cytometry using anti-CD3 antibody-PE and anti-CD41a antibody-FITC (all antibodies were from Pharmingen Inc.).
Using flow cytometry fluoroscein-labeled sPIF-115 (SEQ ID NO: 13) binding to immune cells was examined on resting PBMC.

Data set [3] deals with PBMC. As to the kind of experiment: PIF and analogues on release of cytokines +/- platebound mAbCD3 (Table 4). The class given is cell-based. Details: IL-1β / TNFa / IL-4 / IL-5 / IL-6 / IL-10 / GM-CSM / IFN-g: unit not given here.
Data set [4] deals with donor lymphocytes and platelets. The class given is cell-based, human. Particulars: flow cytometric determination; data not shown.
From the text: The PIF assay, as disclosed in U.S. Pat. No. 5,646,003 to Barnea et al., entitled “Preimplantation Factor” issued Jul. 9, 1997, and in U.S. Pat. No. 5,981,198 to Barnea et al., entitled “Preimplantation Factor” granted Nov. 9, 1999, the disclosures of which are incorporated herein by reference in their entirety, may be used to measure the response of the immune system to pregnancy specific preimplantation factors. […] Lymphocyte-platelet rosettes result from the interaction of the T cell surface protein CD2 with its ligand CD58 expressed on the platelet membrane. Anti-CD2, by binding to the CD2 antigen on the T cells, inhibits their interaction with platelets.
as §2

No end group written: not given here. Some results are limits rather than exact numbers.

Description for mouse splenocytes: Virgin female C57Bl/6 mice were sacrificed and spleen cells were isolated and placed in AIM V culture media with 300 nM FITC PIF-1 (15)+/−100 fold excess unlabeled PIF. Following incubation cells were placed in a flow cytometry and the percentage of cells stained examined.
Splenocytes from virgin female C57BL/6 mice were stained with 300 nM of PIF-1-FITC or scrPIF-1-FITC. Filled histograms indicated PIF-1-FITC or scrPIF-1-FITC alone. Empty histograms represent PIF-1-FITC or scrPIF-1-FITC staining in the presence of 100-fold excess of corresponding unlabeled peptide. Histograms represent both monocytes and lymphocytes according to scatter gating.
Cells were evaluated using flow cytometry determining labeled cells population Filled histograms indicate PIF-FITC or scrPIF-FITC alone. […] Empty histograms represent PIF-FITC or scrPIF-FITC staining in the presence of 100-fold excess of corresponding unlabeled peptide. Histograms represent both monocytes and lymphocytes according to scatter gating.

Consider “GRVDPSNKSMPKDIA [scrPIF-115, GRVDPSNKSMPKDIA]”, for which the “toxic or teratogenic effects” value in the data set with mice is “No toxic or teratogenic effects”.

In the case of SQAVQEHASTNMG [sPIF-2(13)], in the data set with epithelial cells, the “binding to epithelial cells” value is “mild”. The “increase in CD2 expression” value with CD2 was 125-160%. The “increase in the expression of β-3-epithelial integrin” value in the data set with β-3 integrin is on record as “up to a four-fold increase”. For the same substance, the “increase in CD3 receptor expression” value in the data set with CD3 is reported as 180-230%.

Take “FITC sPIF-1(15): sPIF-1(15) labeled on N-terminus with fluorescein isothyocyanate via b-alanine spacer”: the IP pick up result in data set [1] (500 nM in 100 ul IP, 5 and 30 minutes) was “slower with major collection in the cecum”. Moreover, in data set [1] (500 nM in 100 ul IV, 5 and 30 minutes), the “organs with specific pick up” value was “spleen, bone marrow and uterus”. Besides, the elimination entry in data set [1] (IV injected, FIG. 19) is recorded as “rapid elimination by the kidney”. Moreover, the “dissociation of FITC PIF from the PIF receptor by unlabeled peptide” value in the data set on mouse splenocytes is on record as more than 90%. In the data set with PBMC [2], the “B cells positive for fluorescent PIF binding” value was more than 90% and the “T lymphocytes positive for fluorescent PIF binding” value was 60-80%.

Regarding MVRIKPGSA [sPIF-1(9)], in the data set with epithelial cells, the “binding to epithelial cells” value is recorded as “highest binding”. Besides, in the data set with PBMC [3] (C- (platebound mAbCD3), /1), the GM-CSM turned out to be 14.3, the IFN-g was determined as 86.5, the IL-1β is listed as 4.8 and the IL-2 amounted to 26.4. In the data set on PBMC [3] (C- (platebound mAbCD3), /1), this substance yielded an IL-4 of 0, an IL-5 of 0, an IL-6 of 177.6 and an IL-8 of more than 5000. In the data set with PBMC [3] (C- (platebound mAbCD3), /1), this substance gave an IL-10 of 49.0 and a TNFa of 60.1. In the data set with PBMC [3] (C- (platebound mAbCD3), /50), this substance came in with a GM-CSM of 25.3, an IFN-g of 132.1, an IL-1β of 7.8 and an IL-2 of 33.7. In the data set with PBMC [3] (C- (platebound mAbCD3), /50), this substance displayed an IL-4 of 18.16, an IL-5 of 0, an IL-6 of 249.4 and an IL-8 of more than 5000. In the data set with PBMC [3] (C- (platebound mAbCD3), /50), this substance registered an IL-10 of 105.0 and a TNFa of 160.8. In the data set on PBMC [3] (U- (no mAbCD3), /1), this substance returned a GM-CSM of 0, an IFN-g of 0, an IL-1β of 0 and an IL-2 of 0. In the data set with PBMC [3] (U- (no mAbCD3), /1), this substance had an IL-4 of 0, an IL-5 of 0, an IL-6 of 40.8 and an IL-8 of 772.46. In the data set on PBMC [3] (U- (no mAbCD3), /1), this substance returned an IL-10 of 0 and a TNFa of 0. In the data set on PBMC [3] (U- (no mAbCD3), /50), this substance came in with a GM-CSM of 0, an IFN-g of 0, an IL-1β of 0 and an IL-2 of 13.1. In the data set on PBMC [3] (U- (no mAbCD3), /50), the IL-4 was determined as 0, the IL-5 is recorded as 0, the IL-6 was 38.7 and the IL-8 was found to be 1480.2. In the data set on PBMC [3] (U- (no mAbCD3), /50), this substance showed an IL-10 of 0 and a TNFa of 0. Also, the “effect on IL6 and 8” value in the data set with PBMC [3] (non-stimulated PBMC) is on record as “stimulatory effect”. Moreover, the “increase in the expression of β-3-epithelial integrin” value in the data set on β-3 integrin is given as “up to a four-fold increase”. Besides, the “increase in the number of rosettes in the presence of the anti-CD2 antibody” value in [4] was “four-fold increase”.

These data come from patent US7723289B2, “PIF tetrapeptides” (BioIncept, LLC, priority 2003, dated 2010).
